The results in this text go back to US20150329558A1, “FUSED HETEROCYCLIC COMPOUNDS AS ION CHANNEL MODULATORS” (Gilead Sciences, Inc., priority 2011, published 2015).

The target in series [1] is wild-type human cardiac sodium channel, hNav1.5 (late INa) (Homo sapiens, UniProt Q14524). The series can be described thus: Late INa screening assay (QPatch whole cell patch clamp). The class given is cell-based. The method, boiled down: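 Compounds tested at 1 μM final in extracellular solution against tefluthrin (10 μM)-enhanced late current. Automated patch clamp (23-25° C) on HEK293 expressing alpha subunit alone: −120 mV holding, 250 ms depolarization to −20 mV every 10 s. Read-out is percent inhibition of mean current over 225–250 ms.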
Chain of wild-type human cardiac sodium channel, hNav1.5 (late INa) (Q14524 whole entry): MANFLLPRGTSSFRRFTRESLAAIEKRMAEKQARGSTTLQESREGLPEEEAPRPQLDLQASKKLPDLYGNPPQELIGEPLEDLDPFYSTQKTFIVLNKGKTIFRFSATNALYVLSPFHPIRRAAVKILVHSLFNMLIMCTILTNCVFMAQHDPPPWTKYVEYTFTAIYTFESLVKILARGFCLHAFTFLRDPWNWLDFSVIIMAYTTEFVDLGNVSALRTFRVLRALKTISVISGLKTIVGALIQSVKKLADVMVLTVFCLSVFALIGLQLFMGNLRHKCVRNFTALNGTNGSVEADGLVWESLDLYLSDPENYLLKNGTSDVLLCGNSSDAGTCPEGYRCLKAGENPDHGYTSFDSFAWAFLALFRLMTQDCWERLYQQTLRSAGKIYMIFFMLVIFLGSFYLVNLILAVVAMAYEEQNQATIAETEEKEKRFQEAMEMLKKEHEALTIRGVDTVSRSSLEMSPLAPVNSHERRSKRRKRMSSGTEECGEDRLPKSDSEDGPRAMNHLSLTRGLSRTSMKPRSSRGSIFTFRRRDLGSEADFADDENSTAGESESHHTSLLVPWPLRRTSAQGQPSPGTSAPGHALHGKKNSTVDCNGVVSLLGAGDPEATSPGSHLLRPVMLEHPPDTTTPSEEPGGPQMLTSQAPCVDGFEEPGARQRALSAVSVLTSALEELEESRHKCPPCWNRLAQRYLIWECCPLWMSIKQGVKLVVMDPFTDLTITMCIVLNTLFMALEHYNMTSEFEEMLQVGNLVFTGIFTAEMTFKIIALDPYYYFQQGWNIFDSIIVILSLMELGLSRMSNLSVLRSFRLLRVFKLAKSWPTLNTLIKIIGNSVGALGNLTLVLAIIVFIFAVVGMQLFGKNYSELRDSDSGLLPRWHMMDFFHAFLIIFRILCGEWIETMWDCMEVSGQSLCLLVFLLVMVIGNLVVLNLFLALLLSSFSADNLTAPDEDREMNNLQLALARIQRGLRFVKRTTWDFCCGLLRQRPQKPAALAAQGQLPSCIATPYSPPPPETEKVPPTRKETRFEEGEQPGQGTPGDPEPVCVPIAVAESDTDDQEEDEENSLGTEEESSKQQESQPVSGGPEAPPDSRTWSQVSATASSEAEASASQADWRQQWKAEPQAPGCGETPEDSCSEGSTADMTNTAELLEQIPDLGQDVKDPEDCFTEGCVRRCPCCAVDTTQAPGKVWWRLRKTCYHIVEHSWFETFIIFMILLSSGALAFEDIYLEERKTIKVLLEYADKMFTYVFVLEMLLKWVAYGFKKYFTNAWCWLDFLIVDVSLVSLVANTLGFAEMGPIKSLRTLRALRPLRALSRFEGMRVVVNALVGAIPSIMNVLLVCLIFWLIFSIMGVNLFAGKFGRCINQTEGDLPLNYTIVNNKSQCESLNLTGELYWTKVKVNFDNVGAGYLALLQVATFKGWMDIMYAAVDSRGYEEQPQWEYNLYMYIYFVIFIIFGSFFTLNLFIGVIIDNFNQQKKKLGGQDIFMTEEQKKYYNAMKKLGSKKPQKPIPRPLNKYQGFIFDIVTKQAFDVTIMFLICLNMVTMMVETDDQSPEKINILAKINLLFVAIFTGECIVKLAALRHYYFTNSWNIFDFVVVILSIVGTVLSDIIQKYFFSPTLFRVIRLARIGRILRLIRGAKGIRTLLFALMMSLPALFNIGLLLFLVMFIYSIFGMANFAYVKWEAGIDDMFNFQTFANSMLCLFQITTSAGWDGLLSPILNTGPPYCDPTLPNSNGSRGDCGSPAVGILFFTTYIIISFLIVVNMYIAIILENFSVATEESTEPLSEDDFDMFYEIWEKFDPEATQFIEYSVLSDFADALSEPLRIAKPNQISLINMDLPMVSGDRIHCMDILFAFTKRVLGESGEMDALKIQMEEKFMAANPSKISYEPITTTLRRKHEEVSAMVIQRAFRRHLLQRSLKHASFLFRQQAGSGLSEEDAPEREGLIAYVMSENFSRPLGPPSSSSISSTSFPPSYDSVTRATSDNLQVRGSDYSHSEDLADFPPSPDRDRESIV

The target of series [2] is wild-type human cardiac sodium channel, hNav1.5 (peak INa) (Homo sapiens, UniProt Q14524). The series can be described thus: Peak INa screening assay (tonic and use-dependent block). The series is classed as cell-based. As for the experimental part:
The late sodium current (Late INa) and peak sodium current (Peak INa) assays are performed on an automated electrophysiology platform, QPatch 16× (Sophion Bioscience, Copenhagen, Denmark), which uses the whole cell patch clamp technique to measure currents through the cell membrane of up to 16 cells at a time. The assay uses an HEK293 (human embryonic kidney) cell line heterologously expressing the wild-type human cardiac sodium channel, hNav1.5, purchased from Millipore (Billerica, Mass.). No beta subunits were coexpressed with the Na channel alpha subunit. Cells are maintained with standard tissue culture procedures and stable channel expression is maintained with 400 μg/mL Geneticin in the culture medium. […] Experiments are carried out at 23-25° C. For both the Late INa and Peak INa assays, series resistance compensation is set to 100% and series resistance and whole-cell compensation are performed automatically. Currents are digitized at 25 kHz and low-pass filtered at 12 kHz and 10 kHz for the late and peak INa assays, respectively. Currents through open sodium channels are automatically recorded and stored in the Sophion Bioscience Oracle database (Sophion Bioscience, Copehagen, Denmark). Analysis is performed using QPatch Assay and database software and data are compiled in Excel. Compound stocks are routinely made by the Gilead Sample Bank in plastic vials to 10 mM in dimethyl sulfoxide (DMSO). In some cases, when compounds are not soluble in DMSO, they are made in 100% ethanol. Stocks are sonicated as necessary. […] The intracellular solution used to perfuse the inside of the cells for both the Late INa and Peak INa assays contains: 120 mM CsF, 20 mM CsCl, 5 mM EGTA, 5 mM HEPES and pH adjusted to 7.4 with CsOH. Compounds are diluted in extracellular solution to 1 μM in glass vials and then transferred to glass well plates before robotic addition to the cells. […] Compounds were also evaluated for their effect in several other assays, including their effect on Peak INa. Good separation between the concentrations of test compound to reduce late and peak INa is beneficial to enable separation of the desired effect to reduce late INa-induced electrical and mechanical dysfunction from the undesired effect to reduce peak INa, which can lead to slowing or block of conduction of electrical excitation in the heart. It is contemplated that the compounds of Formula I avoid significant block of peak INa. Since the peak INa in the cells used herein can be very large, introducing artifacts in the recording, the concentration of Na^+ in the bath can be reduced to 20 mM and a nonpermeant cation added to compensate for the Na^+ that was removed to maintain the osmolarity and ionic strength of the solution (see solution details below). Analysis of peak INa generally requires correction for rundown before determining the % block of peak current by the tested compound. […] A low stimulation frequency of 0.1 Hz was used to determine the effect of the test compound when the channel spent most of the time in the resting (closed) state and provides information about Tonic Block (TB). A higher stimulation frequency (3 Hz) was used to measure block of the channel when it spent more time in the activated and inactivated states and provided a measure of Use-Dependent Block (UDB). Use-dependent block refers to the accumulation of block with increased frequency of channel activation. Block of cardiac peak INa by compounds of this invention is increased with an increase in the frequency of stimulation from 0.1 to 1-5 Hz (frequencies encountered either in the normal heart or during tachycardia). It is therefore expected that reduction of peak INa by compounds of this invention will be greater at high heart rates, such as those during tachyarrhythmias, than at normal heart rates. […]

A short description of series [3]: Microsomal stability assay, human. The series is classed as in vitro ADME. Particulars: metabolic stability, human liver microsomes 0.5 mg/mL, substrate 3 uM. In a few lines: (§1)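 Liver microsomes at 0.5 mg/mL protein in 100 mM KPO4 buffer, incubated with 3 uM compound and NADPH-regenerating system, run in duplicate. Samples taken at 2, 12, 25, 45 and 65 min and quenched in MeOH/ACN/water before analysis.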
Background: Microsomes from liver hold many membrane-bound enzymes, among them those of drug oxidation.

Series [4] can be described thus: Microsomal stability assay, rat. The series is classed as in vitro ADME. The conditions noted are these: metabolic stability, rat liver microsomes 0.5 mg/mL, substrate 3 uM. In a few lines:
as §1

Series [5] is described as follows: Microsomal stability assay, dog. The series is classed as in vitro ADME. Particulars: metabolic stability, dog liver microsomes 0.5 mg/mL, substrate 3 uM. The method, boiled down:
as §1

The mark [6] stands for this setting: percent block of late INa, compound at 1 μM, 10 μM Tefluthrin, HEK293 hNav1.5, read-out: Late INa 1 μM.
Where [7] appears, read: tonic block of peak INa, 0.1 Hz, 1 μM, read-out: Peak TB 1 μM.
[8] abbreviates: use-dependent block of peak INa, 3 Hz, 1 μM, read-out: Peak UDB 1 μM.

Read-outs that look alike come from different tables or passages of the source.

Chain of wild-type human cardiac sodium channel, hNav1.5 (peak INa) (Q14524 whole entry): as above

`COC(=O)C1(Cn2nnc3ccc(-c4ccc(OC(F)(F)F)cc4)cc3c2=O)CC1` [II-55, methyl 1-((4-oxo-6-(4-(trifluoromethoxy)phenyl)benzo[d][1,2,3]triazin-3 (4H)-yl)methyl)cyclopropanecarboxylate]: the inhibition at 1 µM is 58% in series [1] (% inhibition at 1 μM, read-out: NAv1.5*-LATE-); 58% in series [1] (setting [6]); 7% in series [2] (% inhibition at 1 μM, tonic block, read-out: NAv1.5*-PEAK-TB-); 3% in series [2] (% inhibition at 1 μM, use-dependent block 3 Hz, read-out: NAv1.5*-PEAK-UDB-3 HZ-); 7% in series [2] (setting [7]); 3% in series [2] (setting [8]). In series [3], the MS Human THalf came out at 14 min. This molecule also returned an MS Rat THalf in series [4] of 2 min. In series [5], this molecule gave an MS Dog THalf of 2 min.

For `O=c1c2cc(-c3ccc(OC(F)(F)F)cc3)ccc2nnn1CC1(CN2CCCC2)CC1` [II-63, 3-((1-(pyrrolidin-1-ylmethyl)cyclopropyl)methyl)-6-(4-(trifluoromethoxy)phenyl)benzo[d][1,2,3]triazin-4(3H)-one], the inhibition at 1 µM was 46% in series [1] (setting [6]), 23% in series [2] (setting [7]) and 50% in series [2] (setting [8]). Moreover, in series [3], the MS Human THalf was 34 min. The molecule also registered an MS Rat THalf in series [4] of 31 min. Also, the MS Dog THalf in series [5] came to 36 min.

As to `Cc1cc(C)n(CC2(Cn3nnc4ccc(-c5ccc(OC(F)(F)F)cc5)cc4c3=O)CC2)n1` [II-64, 3-((1-((3,5-dimethyl-1H-pyrazol-1-yl)methyl)cyclopropyl)methyl)-6-(4-(trifluoromethoxy)phenyl)benzo[d][1,2,3]triazin-4(3H)-one], the figures for the inhibition at 1 µM in series [1] (setting [6]), in series [2] (setting [7]) and in series [2] (setting [8]) were 43%, 3% and 9%, respectively. Further, the MS Human THalf in series [3] came out at 11 min. The molecule further gave an MS Rat THalf in series [4] of 16 min. Besides, the MS Dog THalf in series [5] turned out to be 7 min.

Take `Cc1noc(Cn2nnc3ccc(-c4ccc(C5CC5)cc4)cc3c2=O)n1` [II-73, 6-(4-cyclopropylphenyl)-3-((3-methyl-1,2,4-oxadiazol-5-yl)methyl)benzo[d][1,2,3]triazin-4(3H)-one]: the inhibition at 1 µM in series [1] (setting [6]) turned out to be 45%; in series [2] (setting [7]) it was 6%; in series [2] (setting [8]), 1%. In addition, the MS Human THalf in series [3] was found to be 16 min. The molecule also showed an MS Rat THalf in series [4] of 29 min. The MS Dog THalf in series [5] was determined as 5 min.

For `O=c1c2cc(-c3ccc(OC(F)(F)F)cc3)ccc2nnn1CC1(CO)CC1` [II-75, 3-((1-(hydroxymethyl)cyclopropyl)methyl)-6-(4-(trifluoromethoxy)phenyl)benzo[d][1,2,3]triazin-4(3H)-one], the values for the inhibition at 1 µM in series [1] (setting [6]), in series [2] (setting [7]) and in series [2] (setting [8]) were 53%, 11% and 7%, respectively. Moreover, in series [3], the MS Human THalf is 371 min. The same molecule had an MS Rat THalf in series [4] of 75 min. The molecule further showed an MS Dog THalf in series [5] of 85 min.

With `O=c1c2cc(-c3ccc(OC(F)(F)F)cc3)ccc2nnn1CC1(COc2ncccn2)CC1` [II-80, 3-((1-((pyrimidin-2-yloxy)methyl)cyclopropyl)methyl)-6-(4-(trifluoromethoxy)phenyl)benzo[d][1,2,3]triazin-4(3H)-one], the inhibition at 1 µM in series [1] (setting [6]) came to 42%; in series [2] (read-out: Peak TB 1 μM), 8%; in series [2] (read-out: Peak UDB 1 μM) it was 7%. Also, in series [3], the MS Human THalf is 49 min. In series [4], this molecule returned an MS Rat THalf of 34 min. In series [5], this molecule had an MS Dog THalf of 85 min.

Turning to `Cc1cnc(Cn2nnc3ccc(-c4ccc(OC(F)(F)F)cc4)cc3c2=O)o1` [II-96, 3-((5-methyloxazol-2-yl)methyl)-6-(4-(trifluoromethoxy)phenyl)benzo[d][1,2,3]triazin-4(3H)-one], the inhibition at 1 µM in series [1] (setting [6]) is 51%; in series [2] (setting [7]) it was 10%; in series [2] (setting [8]) it was 5%. The molecule also came in with an MS Human THalf in series [3] of 84 min. The molecule further showed an MS Rat THalf in series [4] of 34 min. The molecule also displayed an MS Dog THalf in series [5] of 81 min.
